Test results: ChEMBL document CHEMBL1201862, “PubChem BioAssay data set” (2004)
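Five compound concentrations were applied to cells in 96-well plates for 48 hours; endpoints were derived by simple linear interpolation of the resulting dose-response curve. GI50 = concentration required for 50% inhibition of growth.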 Active and inactive are the calls of the source. Cut-off read from the data, not from the text of the source: active = GI50 up to about 1.1 µM and inactive = higher.

Tests used:
Assay in all cases: NCI anticancer screen, dose series, 48 h
[1] = tested on: 786-0
[2] = tested on: ACHN
[3] = tested on: UACC-62
[4] = tested on: SK-MEL-2
[5] = tested on: OVCAR-5
[6] = tested on: HCT-116
[7] = tested on: IGROV-1
[8] = tested on: COLO 205
[9] = tested on: NCI/ADR-RES
[10] = tested on: SN12C
[11] = tested on: SK-MEL-28
[12] = tested on: NCI-H226
[13] = tested on: SNB-19
[14] = tested on: SF-295
[15] = tested on: OVCAR-3
[16] = tested on: CCRF-CEM
[17] = tested on: HOP-92
[18] = tested on: UO-31
[19] = tested on: SR
[20] = tested on: Malme-3M
[21] = tested on: DU-145
[22] = tested on: SF-539
[23] = tested on: EKVX
[24] = tested on: MDA-N
[25] = tested on: CAKI-1
[26] = tested on: MOLT-4
[27] = tested on: K562
[28] = tested on: U-251
[29] = tested on: A549
[30] = tested on: UACC-257
[31] = tested on: NCI-H460
[32] = tested on: MCF7
[33] = tested on: HL-60
[34] = tested on: HOP-62
[35] = tested on: RXF 393
[36] = tested on: RPMI-8226
[37] = tested on: TK-10
[38] = tested on: HT-29
[39] = tested on: NCI-H23
[40] = tested on: OVCAR-4
[41] = tested on: SW-620
[42] = tested on: PC-3
[43] = tested on: HCC 2998
[44] = tested on: SNB-75
[45] = tested on: SF-268
[46] = tested on: M14
[47] = tested on: KM12
[48] = tested on: BT-549
[49] = tested on: OVCAR-8
[50] = tested on: HCT-15
[51] = tested on: SK-MEL-5
[52] = tested on: NCI-H522
[53] = tested on: SK-OV-3
[54] = tested on: Hs-578T
[55] = tested on: LOX IMVI
[56] = tested on: T47D
[57] = tested on: A498
[58] = tested on: MDA-MB-231
[59] = tested on: MDA-MB-435

## Clc1ccccc1C(SCc1ccccc1)SCc1ccccc1
[1]
  GI50: > 100 µM (inactive)
[2]
  GI50: > 100 µM (inactive)
[3]
  GI50: 94.4 µM (inactive)
[4]
  GI50: > 100 µM (inactive)
[5]
  GI50: > 100 µM (inactive)
[6]
  GI50: > 100 µM (inactive)
[7]
  GI50: > 100 µM (inactive)
[8]
  GI50: > 100 µM (inactive)
[9]
  GI50: > 100 µM (inactive)
[10]
  GI50: > 100 µM (inactive)
[11]
  GI50: > 100 µM (inactive)
[12]
  GI50: > 100 µM (inactive)
[13]
  GI50: > 100 µM (inactive)
[14]
  GI50: > 100 µM (inactive)
[15]
  GI50: > 100 µM (inactive)
[16]
  GI50: > 100 µM (inactive)
[17]
  GI50: > 100 µM (inactive)
[18]
  GI50: > 100 µM (inactive)
[19]
  GI50: > 100 µM (inactive)
[20]
  GI50: > 100 µM (inactive)
[21]
  GI50: > 100 µM (inactive)
[22]
  GI50: > 100 µM (inactive)
[23]
  GI50: 39.6 µM (inactive)
[24]
  GI50: > 100 µM (inactive)
[25]
  GI50: > 100 µM (inactive)
[26]
  GI50: > 100 µM (inactive)
[27]
  GI50: > 100 µM (inactive)
[28]
  GI50: > 100 µM (inactive)
[29]
  GI50: > 100 µM (inactive)
[30]
  GI50: > 100 µM (inactive)
[31]
  GI50: > 100 µM (inactive)
[32]
  GI50: > 100 µM (inactive)
[33]
  GI50: 64.7 µM (inactive)
[34]
  GI50: > 100 µM (inactive)
[35]
  GI50: > 100 µM (inactive)
[36]
  GI50: > 100 µM (inactive)
[37]
  GI50: > 100 µM (inactive)
[38]
  GI50: > 100 µM (inactive)
[39]
  GI50: > 100 µM (inactive)
[40]
  GI50: > 100 µM (inactive)
[41]
  GI50: > 100 µM (inactive)
[42]
  GI50: > 100 µM (inactive)
[43]
  GI50: > 100 µM (inactive)
[44]
  GI50: 41.8 µM (inactive)
[45]
  GI50: > 100 µM (inactive)
[46]
  GI50: > 100 µM (inactive)
[47]
  GI50: 93.8 µM (inactive)
[48]
  GI50: > 100 µM (inactive)
[49]
  GI50: > 100 µM (inactive)
[50]
  GI50: 75.2 µM
[51]
  GI50: > 100 µM (inactive)
[52]
  GI50: > 100 µM (inactive)

## COc1cc(O)c2c(=O)c(OC)c(-c3ccc(OC)c(OC)c3)oc2c1.[Zn+2]
[1]
  GI50: 10.4 µM (inactive)
[10]
  GI50: 61.2 µM (inactive)
[53]
  GI50: 5.12 µM (inactive)
[12]
  GI50: 54.8 µM (inactive)
[22]
  GI50: 20.8 µM (inactive)
[24]
  GI50: > 100 µM (inactive)
[25]
  GI50: 11.2 µM (inactive)
[29]
  GI50: 53.2 µM (inactive)
[31]
  GI50: 17.1 µM (inactive)
[33]
  GI50: > 100 µM (inactive)
[35]
  GI50: 5.81 µM (inactive)
[36]
  GI50: 57.9 µM (inactive)
[37]
  GI50: 66.1 µM (inactive)
[44]
  GI50: 1.75 µM (inactive)
[48]
  GI50: 17.8 µM (inactive)
[54]
  GI50: 2.67 µM (inactive)
[52]
  GI50: 4.38 µM (inactive)

## CN(C)c1ccc(C=c2c3ccccc3n3c2cc(-c2ccc(Cl)cc2)[n+]3C)cc1
[1]
  GI50: 0.267 µM (active)
[2]
  GI50: 0.514 µM (active)
[3]
  GI50: 0.291 µM (active)
[4]
  GI50: 0.237 µM (active)
[5]
  GI50: 1.04 µM (active)
[6]
  GI50: 0.0653 µM (active)
[8]
  GI50: 0.0705 µM (active)
[9]
  GI50: 6.41 µM (inactive)
[10]
  GI50: 0.254 µM (active)
[55]
  GI50: 0.194 µM (active)
[11]
  GI50: 0.519 µM (active)
[53]
  GI50: 0.331 µM (active)
[12]
  GI50: 0.573 µM (active)
[13]
  GI50: 0.268 µM (active)
[14]
  GI50: 0.501 µM (active)
[15]
  GI50: 0.295 µM (active)
[16]
  GI50: 0.0649 µM (active)
[17]
  GI50: 0.221 µM (active)
[18]
  GI50: 0.904 µM (active)
[20]
  GI50: 0.333 µM (active)
[21]
  GI50: 0.177 µM (active)
[22]
  GI50: 0.228 µM (active)
[23]
  GI50: 0.617 µM (active)
[24]
  GI50: 0.327 µM (active)
[25]
  GI50: 0.259 µM (active)
[26]
  GI50: 0.147 µM (active)
[27]
  GI50: < 0.0462 µM (active)
[28]
  GI50: 0.0269 µM (active)
[29]
  GI50: 0.238 µM (active)
[30]
  GI50: 0.158 µM (active)
[31]
  GI50: 0.263 µM (active)
[32]
  GI50: 0.0953 µM (active)
[33]
  GI50: 0.101 µM (active)
[34]
  GI50: 0.406 µM (active)
[35]
  GI50: 0.822 µM (active)
[36]
  GI50: 0.0372 µM (active)
[37]
  GI50: 0.578 µM (active)
[38]
  GI50: 0.315 µM (active)
[39]
  GI50: 0.195 µM (active)
[40]
  GI50: 0.748 µM (active)
[41]
  GI50: 0.242 µM (active)
[42]
  GI50: 0.167 µM (active)
[43]
  GI50: 0.603 µM (active)
[44]
  GI50: 0.307 µM (active)
[45]
  GI50: 0.473 µM (active)
[46]
  GI50: 0.301 µM (active)
[47]
  GI50: 0.105 µM (active)
[56]
  GI50: 0.133 µM (active)
[57]
  GI50: 1.51 µM (inactive)
[58]
  GI50: 0.217 µM (active)
[48]
  GI50: 0.201 µM (active)
[49]
  GI50: 0.147 µM (active)
[59]
  GI50: 0.207 µM (active)
[50]
  GI50: 1.47 µM
[51]
  GI50: 0.167 µM (active)
[52]
  GI50: 0.0577 µM (active)
